{"source": "patent US20240345082A1", "about": "“IDENTIFICATION AND APPLICATION OF SELECTIVE CELL SURFACE MARKERS AND ADDITIONAL METHODS FOR HUMAN RED/GREEN CONE PHOTORECEPTOR PRECURSOR ENRICHMENT” (Wisconsin Alumni Research Foundation, priority 2023, published 2024)", "key": {"CPP microaggregates [1]": {"test_system": "CPP microaggregates", "assay": "Flow cytometric quantification of THRB2:tdTomato-positive red/green CPP cells in CPP microaggregates", "format": "cell-based, human", "conditions": "CPP microaggregate formation combined with MMC treatment (250 ng/ml), 10 days post microaggregate formation; increased from 17% (unsorted CRR ROs at D60)"}, "CPP microaggregates [2]": {"test_system": "CPP microaggregates", "assay": "Ki-67 immunostaining (IHC) of MMC-treated ALCAM/CD166-sorted CPP microaggregates", "conditions": "for Ki-67 positive cells in CPP microaggregates: 7 dpt"}}}
{"molecule": "CO[C@@]12[C@H](COC(N)=O)C3=C(C(=O)C(C)=C(N)C3=O)N1C[C@@H]1N[C@@H]12", "note": "[MMC, mitomycin C]", "values": [{"measurement": "percentage of THRB2:tdTomato-positive red/green CPP cells", "setting": "CPP microaggregates [1]", "result": 89.5, "unit": "%"}, {"measurement": "Ki-67 positive cells in CPP microaggregates", "setting": "CPP microaggregates [2]; 100 ng/mL MMC", "result": "few"}, {"measurement": "Ki-67 positive cells in CPP microaggregates", "setting": "CPP microaggregates [2]; 250 ng/mL MMC", "result": "almost nil"}, {"measurement": "morphology of CPP microaggregates", "setting": "CPP microaggregates [2]; 500 ng/mL MMC", "result": "noticeable disruption"}, {"measurement": "Ki-67 positive cells in CPP microaggregates", "setting": "CPP microaggregates [2]; 500 ng/mL MMC", "result": "almost nil"}]}
